Data set [1] can be described thus: method code SF-AS, from DOI: 10.1562/0031-8655(2003)0780411sacotn2.0.co2, PMID: 14626671. Conditions: pH 6.8.
Data set [2] in a line: method code SF-HPLC, from DOI: 10.1016/0378-5173(89)90313-x. Conditions: pH 7.4.
Data set [3] is described as follows: method code SF-HPLC, from DOI: 10.1016/s0969-8043(00)00269-4, PMID: 11200881. Conditions: pH 7.4.
A short description of data set [4]: method code SF-AS, from DOI: 10.1248/cpb.45.1287, PMID: 9301027.
Assay in data set [5]: not given
The source holds these as a separate data set.

The nature of data set [6]: method code SF-RC, from DOI: 10.1016/j.nucmedbio.2016.03.005, PMID: 27179748. Conditions: pH 7.4.
The nature of data set [7]: method code SF-AS, from DOI: 10.1021/acs.jmedchem.5b00731, PMID: 26397825. Conditions: pH 7.4.
Assay in data set [8]: not given
This is another data set of the same source.

Assay in data set [9]: not given
The source holds these as a separate data set.

Data set [10] is described as follows: method code SF-HPLC, from DOI: 10.2174/1871523013666141114203105, PMID: 25403255. Conditions: pH 7.4.
Data set [11] is described as follows: method code SF-AS, from DOI: 10.1562/0031-8655(2002)076<0127:dlbcop>2.0.co;2, PMID: 12194207. The conditions noted are these: pH 7.3.
Data set [12] in a line: method code SF-RC/EIA, from DOI: 10.1016/s0022-2275(20)42614-8, PMID: 2280184. Conditions: pH 1.0.
Data set [13] is described as follows: method code SF-HPLC, from DOI: 10.1016/j.bmc.2009.01.040, PMID: 19208447. The conditions noted are these: pH 7.0.
Data set [14] in a line: method code SF-AS, from DOI: 10.1016/s0021-9673(01)89522-4.
A short description of data set [15]: method code SF-HPLC, from DOI: 10.1023/a:1011018730459, PMID: 11451042.
The nature of data set [16]: method code SF-AS, from DOI: 10.1016/j.dyepig.2012.09.011. The conditions noted are these: pH 7.4.
Data set [17] is described as follows: method code SF-HPLC, from DOI: 10.1021/jm00056a006, PMID: 8474102. The conditions noted are these: pH 7.4.
Data set [18] is described as follows: method code SF-RC, from DOI: 10.1016/j.nucmedbio.2016.05.003, PMID: 27236283. Conditions: pH 7.4.
Data set [19] in a line: method code SF, from DOI: 10.1016/j.bmcl.2009.04.053, PMID: 19409782.
The nature of data set [20]: method code SF-HPLC, from DOI: 10.3109/14756366.2013.845817, PMID: 24156741.
The nature of data set [21]: method code SF-RC/EN, from DOI: 10.1016/s0022-2275(20)42614-8, PMID: 2280184. The conditions noted are these: pH 1.0.
Assay in data set [22]: not given
The source holds these as a separate data set.

By logD is commonly meant lipophilicity at a set pH, counting ionised and neutral species. High values mean higher lipophilicity, low ones lower lipophilicity. Usually logP stands for the decadic logarithm of the partition coefficient of the neutral form, usually between octanol and water.

`COc1c(O)c2c(=O)cc(OC)c3c4c(OC)cc(=O)c5c(O)c(NCCN(C)C)c6c(c(c1C(C(C)=O)=C(C)C6)c23)c54` came in with a logD in data set [1] of 0.5.

With `CN1C=CCC(C(=O)NCCCOC(=O)CCCc2ccc(N(CCCl)CCCl)cc2)=C1`, the logD in [2] worked out at 2.75.

`CN1C=CCC(C(=O)NCC(OC(=O)CCCc2ccc(N(CCCl)CCCl)cc2)c2ccccc2)=C1` (stereo not given) showed a logD in data set [2] of 2.29.

`CNc1cccc(NC(=O)N[C@@H]2N=C(c3ccccn3)c3ccccc3N(CC(=O)C(C)(C)C)C2=O)c1`: the logD in data set [3] came out at 2.68.

For the compound `O=C1C2C3CCC(CC3)C2C(=O)N1CCCCN1CCN(c2ccc3ccccc3n2)CC1` (stereo not given), the logP came to 4.1.

`CCOCCn1c(CN2CCCN(CCCCn3cccn3)CC2)nc2ccccc21`: the logP in data set [4] was 4.61.

In data set [5], `COc1ccc2c(c1)c(CC(=O)C1c3cccc(O)c3C(=O)c3c(O)cccc31)c(C)n2C(=O)c1ccc(Cl)cc1` had a logP of 5.17.

In [6], `COc1ccc(S(=O)(=O)N(Cc2cn(CCOCCOCCOCCF)nn2)C(C(=O)NO)C(C)C)cc1` (stereo not given) registered a logD of 0.23.

In data set [7], `CCN(CC)c1ccc(C=C2CC(=Cc3ccc(N(COCCOCCOCCOC)COCCOCCOCCOC)cc3)C2=O)cc1` returned a logD of 3.2.

As for `CC(=O)OC1C(=O)C2(C)C(O)CC3OCC3(OC(C)=O)C2C(OC(=O)c2ccccc2)C2(O)CC(OC(=O)C(O)CNC(=O)c3ccccc3)C(C)=C1C2(C)C` (stereo not given), the logP in data set [8] came out at 1.92.

Consider `CCCCOC(=O)CC(Cc1cncn1C)C(CC)C(=O)OCc1ccc(COC(=O)C(CC)C(CC(=O)OCCCC)Cc2cncn2C)cc1` (stereo not given), for which, in [9], the logP amounted to 6.87.

On to `CC1CCC(C(C)C)C(OC(=O)COC(=O)Cc2ccccc2Nc2c(Cl)cccc2Cl)C1` (stereo not given), for which the logD in data set [10] was found to be 5.07.

For the compound `Oc1cccc(-c2c3nc(c(-c4cccc(O)c4)c4ccc([nH]4)c(-c4cccc(O)c4)c4nc(c(-c5cccc(O)c5)c5ccc2[nH]5)CC4)C=C3)c1`, the logD in [11] came to 5.42.

On to `C[C@H](CCC(=O)NCC(=O)O)[C@H]1CC[C@H]2[C@@H]3[C@H](O)C[C@@H]4C[C@H](O)CC[C@]4(C)[C@H]3CC[C@]12C`, for which the logD in data set [12] turned out to be 2.12.

As to `O=C(c1ccccc1)c1cccc(C(O)C(=O)OCC2OC(OC3OC(CO)C(O)C(O)C3O)C(O)C(O)C2O)c1` (stereo not given), the logD in data set [13] is -0.25.

For `CC(=O)O[C@H]1C(=O)[C@@]2(C)[C@H]([C@H](OC(=O)c3ccccc3)[C@]3(O)C[C@H](OC(=O)[C@@H](C)O)C(C)=C1C3(C)C)[C@]1(OC(C)=O)CO[C@@H]1C[C@@H]2O`, in [8], the logP worked out at 1.52.

`CC12CCC(O)CC1CCC1C2CCC2(C)C(C3=CC(=O)OC3)CCC12O` (stereo not given) displayed a logP in [14] of 2.64.

`COc1cc(C(=O)OCC2OC(n3cnc4c(NC5CCCC5)ncnc43)C(O)C2O)cc(OC)c1OC` (stereo not given) registered a logP in [15] of 2.27.

In data set [16], `C1=Cc2nc1c(-c1cccs1)c1ccc([nH]1)c(-c1cccs1)c1nc(c(-c3cccs3)c3ccc([nH]3)c2-c2cccs2)C=C1` returned a logD of 2.74.

Compound `CC(C(=O)C1c2cccc(O)c2C(=O)c2c(O)cccc21)c1ccc(Cc2ccccc2)cc1` (stereo not given) showed a logP in data set [5] of 4.46.

In turn, `CC(C)CC(O)C(O)C(CC1CCCCC1)NC(=O)C(Cc1cscn1)NC(=O)C(Cc1ccccc1)CS(=O)(=O)C1CCN(C)C1` (stereo not given) yielded a logD in [17] of 3.61.

With `COc1cc(NCCCF)cc(OC)c1NC(=O)c1ccc(Cc2cc3c(cc2C)CCCC3(C)C)o1`, in [18], the logD worked out at 1.43.

In the case of `CC(C(=O)OCC(O)C(OC1OC(CO)C(O)C(O)C1O)C(O)C(O)C=O)c1cccc(C(=O)c2ccccc2)c1` (stereo not given), the pH-dependent lipophilicity (logD) in data set [13] was -0.13.

`O=[N+]([O-])N=C1N(Cc2ccc(Cl)nc2)CCN1Cc1ccc2c(c1)OCCOCCOCCOCCOCCO2`: in data set [19], the logP was -0.55.

`COc1ccccc1N1CCN(CCN(C(=O)C2CCCCC2)c2ccccn2)CC1` displayed a pH-dependent lipophilicity (logD) in data set [3] of 3.1.

`COCCOCCOCCOCN(C)c1ccc(C=C2CC(=Cc3ccc(N(C)COCCOCCOCCOC)cc3)C2=O)cc1`: the logD in [7] is 2.86.

For `O=[N+]([O-])N=C1N(Cc2ccc(Cl)nc2)CCN1Cc1ccc2c(c1)OCCOCCOCCOCCO2`, in data set [19], the logP is -0.82.

Regarding `C#CCn1cc(C(=O)NC(c2ccccc2)C(O)C(=O)Nc2ccccc2)c(=O)c2cc(F)c(Cl)nc21` (stereo not given), the logP in data set [20] came out at 5.55.

For `COc1ccc(S(=O)(=O)N(Cc2ccc(OCCOCCOCCOCCOCc3cn(CCF)nn3)cc2)[C@@H](C(=O)NO)C(C)C)cc1`, in data set [6], the logD came out at 1.24.

`C[C@H](CCC(=O)NCC(=O)O)[C@H]1CC[C@H]2[C@@H]3[C@H](O)C[C@@H]4C[C@H](O)CC[C@]4(C)[C@H]3C[C@H](O)[C@]12C` had a logD in data set [12] of 1.65.

Consider `COC1=C2CC(C)=c3c(C(C)=O)c(OC)c(O)c4c3c2c2c(cc(OC)c3c(OC)cc(O)c4c32)C(=O)C1=O`, for which the logD in [1] worked out at 1.67.

The compound `C#CCn1cc(C(=O)NC(C(=O)NC2CCCC2)c2ccccc2)c(=O)c2cc(F)c(Cl)nc21` (stereo not given) gave a logP in data set [20] of 6.22.

As to `C[C@H](CCC(=O)O)C1CCC2C3C(CC[C@@]21C)[C@@]1(C)CC[C@@H](O)CC1C[C@H]3O` (stereo not given in full), the logD in [21] is 3.28.

As for `COC(=O)C1=C(C)NC(C)=C(C(=O)OCCN2CCN(C(c3ccccc3)c3ccccc3)CC2)C1c1cccc([N+](=O)[O-])c1` (stereo not given), the logP in [22] came out at 5.2.

For `Nc1cccc(-c2c3nc(c(-c4cccc(N)c4)c4ccc([nH]4)c(-c4cccc(N)c4)c4nc(c(-c5cccc(N)c5)c5ccc2[nH]5)C=C4)C=C3)c1`, the logD in data set [16] was determined as 3.75.

With `CC12CCC(O)CC1CCC1C2CCC2(C)C(C3=CC(=O)OC3)C(O)CC12O` (stereo not given), the logP in data set [14] turned out to be 1.76.

Regarding `Cc1ccc(C(C)C)c(OC(=O)COC(=O)Cc2ccccc2Nc2c(Cl)cccc2Cl)c1`, the logD in data set [10] amounted to 5.08.

The compound `c1ccc2c(c1)-c1cc3[nH]c(cc4nc(cc5[nH]c(cc-2n1)c1ccccc51)-c1ccccc1-4)c1ccccc31` registered a log distribution coefficient (logD) in data set [11] of 3.35.

In data set [17], `CC(C)CC(O)C(O)C(CC1CCCCC1)NC(=O)C(Cc1nccs1)NC(=O)C(Cc1ccccc1)CS(=O)(=O)C1CN(C)C1` (stereo not given) had a logD of 3.89.

In data set [4], `CCOCCn1c(N2CCCN(CCCCn3cccn3)CC2)nc2ccccc21` showed a lipophilicity (logP) of 3.99.

Regarding `CCOC(=O)C1=C(C)NC(C)=C(C(=O)OCC)C1c1ccccc1/C=C/C(=O)OC(C)(C)C`, in data set [22], the logP is 4.43.

In turn, `O=C1CC2(CCCC2)CC(=O)N1CCCCN1CCN(c2ccc3ccccc3n2)CC1` gave a logP of 4.23.

Compound `CCCCCCCC(=O)OCC1OC(n2cnc3c(NC4CCCC4)ncnc32)C(O)C1O` (stereo not given) showed a logP in data set [15] of 3.91.

`C[C@H](CCC(=O)O)[C@H]1CC[C@H]2[C@@H]3[C@H](O)C[C@@H]4C[C@H](O)CC[C@]4(C)[C@H]3C[C@H](O)[C@]12C` had a pH-dependent lipophilicity (logD) in data set [21] of 2.02.

Regarding `COc1cc(OCCF)cc(OC)c1NC(=O)c1ccc(Cc2cc3c(cc2C)CCCC3(C)C)o1`, the logD in data set [18] was found to be 1.85.

For the origin of these results see the SangsterLogP compilation.
